Source: the supplement of paper PMC10307832

What was measured:
[1] = compound: COc1cc2nc(N3CCCN(C)CC3)nc(NC3CCN(Cc4ccccc4)CC3)c2cc1OC + CC(=O)Nc1cccc(-n2c(=O)n(C3CC3)c(=O)c3c(Nc4ccc(I)cc4F)n(C)c(=O)c(C)c32)c1 [Trametinib] (partner 0.02 µM); assay: relative viability (nuclei count vs DMSO), 5 days (fraction); higher = more cells survive
Outline: (§1)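 A single step with final 0.05% Triton X-100, 1% formaldehyde and 1 ug/ml Hoechst fixed the cells and stained nuclei 5 days after treatment. Lung cancer cell lines in 1536-well plates had been treated by pin tool the day after seeding with one drug alone or a fixed anchor-drug dose plus five library-drug doses (not always all listed) in √10 steps, and nuclei were counted on 4× images. Relative viability is the ratio of nuclei in treated wells to nuclei in vehicle wells, taken as the median of duplicate plates.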

[2] = compound: COc1cc2nc(N3CCCN(C)CC3)nc(NC3CCN(Cc4ccccc4)CC3)c2cc1OC + NC(=O)Nc1cc(-c2cccc(F)c2)sc1C(=O)N[C@H]1CCCNC1 [AZD7762] (partner 0.2 µM); assay: as above
Outline: as §1

Cell Line | relative viability ([1]; first compound 0.2 µM) | relative viability ([1]; first compound 0.6325 µM) | relative viability ([1]; first compound 2 µM) | relative viability ([1]; first compound 6.325 µM) | relative viability ([2]; first compound 0.2 µM) | relative viability ([2]; first compound 0.6325 µM) | relative viability ([2]; first compound 2 µM) | relative viability ([2]; first compound 6.325 µM)
201T | 0.701 | 0.702 | 0.71 | 0.675 | 0.657 | 0.619 | 0.492 | 0.602
A-427 | 0.756 | 0.677 | 0.739 | 0.674 | 0.785 | 0.681 | 0.756 | 0.775
ABC-1 |  |  |  |  | 0.753 | 0.772 | 0.79 | 0.91
BEN | 1.06 | 1.04 | 1.02 | 1.1 | 0.8 | 0.82 | 0.752 | 0.736
CAL-12T | 0.324 | 0.329 | 0.302 | 0.266 | 0.725 | 0.615 | 0.614 | 0.595
COR-L23 | 0.635 | 0.466 | 0.748 | 0.638 |  |  |  | 
COR-L 105 | 0.429 | 0.515 | 0.403 | 0.439 |  |  |  | 
ChaGo-K-1 | 0.919 | 0.882 | 0.932 | 0.887 | 0.911 | 0.852 | 0.882 | 0.856
EKVX | 0.316 | 0.393 | 0.319 | 0.278 | 0.795 | 0.713 | 0.815 | 0.657
EMC-BAC-2 | 0.873 | 0.857 | 0.899 | 0.732 | 1.06 | 1.16 | 1.07 | 1.29
EPLC-272H | 0.292 | 0.333 | 0.268 | 0.278 | 0.209 | 0.209 | 0.184 | 0.258
H3255 | 0.593 | 0.607 | 0.554 | 0.537 | 0.911 | 0.86 | 0.972 | 0.795
HARA | 0.686 | 0.916 | 0.522 | 0.746 | 0.306 | 0.337 | 0.453 | 0.266
HCC-15 | 0.44 | 0.386 | 0.373 | 0.379 | 1.28 | 1.2 | 1.15 | 1.34
HCC-44 | 1.04 | 1.13 | 1.1 | 1.08 | 1.04 | 0.995 | 0.994 | 1.01
HCC-78 | 0.734 | 0.695 | 0.723 | 0.685 | 0.588 | 0.675 | 0.67 | 0.717
HCC-366 | 0.335 | 0.401 | 0.358 | 0.239 | 0.232 | 0.203 | 0.272 | 0.258
HCC-827 | 0.533 | 0.558 | 0.518 | 0.542 | 0.199 | 0.213 | 0.15 | 0.238
HOP-62 | 0.396 | 0.434 | 0.459 | 0.361 | 0.485 | 0.425 | 0.726 | 0.521
LC-2-ad | 0.934 | 0.871 | 0.942 | 0.941 | 0.827 | 0.908 | 0.941 | 0.91
LCLC-97TM1 | 0.181 | 0.166 | 0.225 | 0.195 | 0.335 | 0.269 | 0.297 | 0.277
LCLC-103H | 0.682 | 0.745 | 0.743 | 0.671 | 0.814 | 0.719 | 0.903 | 0.832
LK-2 | 0.813 | 0.928 | 0.633 | 0.881 | 0.463 | 0.487 | 0.506 | 0.249
LOU-NH91 | 0.801 | 0.778 | 0.781 | 0.811 | 0.727 | 0.85 | 0.759 | 0.793
LU99A | 0.531 | 0.47 | 0.541 | 0.526 | 0.383 | 0.314 | 0.301 | 0.285

Cell Line | relative viability ([1]; first compound 0.2 µM) | relative viability ([1]; first compound 0.6325 µM) | relative viability ([1]; first compound 2 µM) | relative viability ([1]; first compound 6.325 µM) | relative viability ([2]; first compound 0.2 µM) | relative viability ([2]; first compound 0.6325 µM) | relative viability ([2]; first compound 2 µM) | relative viability ([2]; first compound 6.325 µM)
LXF-289 | 0.651 | 0.701 | 0.634 | 0.625 | 1.04 | 1.05 | 1.12 | 1.11
NCI-H23 | 0.358 | 0.362 | 0.44 | 0.342 | 0.198 | 0.322 | 0.262 | 0.174
NCI-H322M | 0.503 | 0.495 | 0.531 | 0.512 | 0.48 | 0.665 | 0.444 | 0.549
NCI-H358 | 0.132 | 0.16 | 0.121 | 0.126 | 0.518 | 0.681 | 0.48 | 0.498
NCI-H441 | 0.366 | 0.532 | 0.422 | 0.33 | 1.09 | 1.12 | 0.973 | 1.12
NCI-H460 | 0.13 | 0.16 | 0.107 | 0.0898 | 0.746 | 0.604 | 0.562 | 0.636
NCI-H520 | 0.744 | 0.637 | 0.674 | 0.176 |  |  |  | 
NCI-H522 | 0.754 | 0.728 | 0.749 | 0.817 | 0.901 | 0.791 | 0.986 | 0.792
NCI-H596 | 0.748 | 0.765 | 0.822 | 0.655 | 1.16 | 1.03 | 1.23 | 1.06
NCI-H647 | 0.514 | 0.495 | 0.527 | 0.238 | 0.479 | 0.602 | 0.512 | 0.419
NCI-H650 | 1.01 | 1.06 | 1 | 0.978 | 0.95 | 0.93 | 1.02 | 0.67
NCI-H661 | 0.612 | 0.563 | 0.648 | 0.586 |  |  |  | 
NCI-H727 | 0.425 | 0.368 | 0.373 | 0.361 | 0.646 | 0.449 | 0.578 | 0.668
NCI-H838 | 0.536 | 0.556 | 0.532 | 0.391 | 0.974 | 0.908 | 1.01 | 0.892
NCI-H1355 | 0.419 | 0.458 | 0.433 | 0.385 | 0.738 | 0.693 | 0.941 | 0.661
NCI-H1395 | 1.01 | 1.03 | 1.13 | 0.806 | 0.413 | 0.446 | 0.37 | 0.335
NCI-H1437 | 0.492 | 0.515 | 0.527 | 0.325 | 1.15 | 1.17 | 1.17 | 1.17
NCI-H1648 |  | 0.511 |  | 0.532 |  | 0.708 |  | 0.68
NCI-H1650 | 0.576 | 0.601 | 0.499 | 0.511 |  |  |  | 
NCI-H1651 | 0.828 | 0.815 | 0.888 | 0.848 | 0.446 | 0.373 | 0.452 | 0.502
NCI-H1666 | 0.821 | 0.781 | 0.774 | 0.799 | 0.901 | 0.809 | 0.76 | 0.746
NCI-H1703 |  |  |  |  | 0.118 |  | 0.125 | 0.184
NCI-H1734 | 0.657 | 0.697 | 0.738 | 0.552 | 0.551 | 0.505 | 0.502 | 0.724
NCI-H1755 | 0.797 | 0.75 | 0.713 | 0.746 | 0.501 | 0.386 | 0.461 | 0.477
NCI-H1792 | 0.435 | 0.47 | 0.466 | 0.399 | 0.778 | 0.591 | 0.76 | 0.58

Cell Line | relative viability ([1]; first compound 0.2 µM) | relative viability ([1]; first compound 0.6325 µM) | relative viability ([1]; first compound 2 µM) | relative viability ([1]; first compound 6.325 µM) | relative viability ([2]; first compound 0.2 µM) | relative viability ([2]; first compound 0.6325 µM) | relative viability ([2]; first compound 2 µM) | relative viability ([2]; first compound 6.325 µM)
NCI-H1793 | 0.374 | 0.39 | 0.412 | 0.373 | 0.43 | 0.617 | 0.357 | 0.432
NCI-H1915 | 0.309 | 0.295 | 0.309 | 0.277 | 0.698 | 0.586 | 0.72 | 0.764
NCI-H1944 | 0.437 | 0.423 | 0.379 | 0.414 | 0.534 | 0.476 | 0.487 | 0.51
NCI-H1975 | 0.369 | 0.41 | 0.346 | 0.322 | 0.78 | 0.813 | 0.805 | 0.775
NCI-H1993 | 0.497 | 0.485 | 0.414 | 0.589 | 0.73 | 0.844 | 0.816 | 0.826
NCI-H2009 | 0.277 | 0.305 | 0.323 | 0.289 |  |  |  | 
NCI-H2023 | 0.598 | 0.577 | 0.501 | 0.116 |  |  |  | 
NCI-H2085 | 0.504 | 0.504 | 0.612 | 0.525 | 0.992 | 0.992 | 1.09 | 0.947
NCI-H2087 | 0.244 | 0.215 | 0.144 | 0.206 | 1.48 | 1.18 | 1.46 | 1.22
NCI-H2126 | 0.532 | 0.572 | 0.513 | 0.508 | 1.04 | 1.02 | 1.04 | 0.982
NCI-H2170 | 0.989 | 0.856 | 0.959 | 0.948 | 0.936 | 0.809 | 0.892 | 0.833
NCI-H2228 | 0.561 | 0.565 | 0.403 | 0.395 |  |  |  | 
NCI-H2342 | 0.916 | 0.963 | 0.818 | 0.803 | 0.472 | 0.748 | 0.652 | 0.497
NCI-H2347 | 0.275 | 0.299 | 0.271 | 0.377 | 0.697 | 0.714 | 0.839 | 0.76
NCI-H2405 | 0.652 | 0.604 | 0.676 | 0.591 | 0.671 | 0.792 | 0.829 | 0.973
NCI-H3122 | 0.239 | 0.199 | 0.197 | 0.208 | 1.1 | 0.918 | 1.02 | 0.983
PC-3 [JPC-3] | 0.641 | 0.761 | 0.745 | 0.507 | 0.692 | 1.06 | 0.874 | 0.685
PC-14 | 0.707 | 0.648 | 0.806 | 0.0693 | 0.343 | 0.382 | 0.357 | 0.257
RERF-LC-KJ | 0.829 | 0.862 | 0.928 | 0.803 | 1.03 | 0.932 | 0.999 | 0.888
SK-LU-1 | 0.554 | 0.541 | 0.516 | 0.459 |  |  |  | 
SK-MES-1 | 0.597 | 0.56 | 0.599 | 0.471 |  |  |  | 
SW 900 | 0.661 | 0.753 | 0.584 | 0.688 | 0.62 | 0.564 | 0.611 | 0.577
SW 1573 | 0.446 | 0.518 | 0.572 | 0.368 |  |  |  | 
